Data: US5750332A, “Peptomers with enhanced immunogenicity” (priority 1995, dated 1998)
Values joined by “and” are separate entries in the source; they are usually repeats but may differ in a detail not shown here. Identical values can stand only once. Like-named read-outs stand apart in the source and are kept apart here. Where no end group is shown, it is not given here.

Experiments:
CD4 = CD4 (Homo sapiens, UniProt P01730); test: Binding of peptide monomer to CD4 in the presence of detergent
[1] = Circular dichroism spectroscopy, degree of α-helicity; type: physicochemical; settings: for helix content: circular dichroism, analysis according to Provencher et al.
Text: Circular dichroism spectroscopy was used to determine the degree of α-helicity of the peptomer and the peptide from which it was derived. […] In this case, the peptide contains 8±7% helix, while the peptomer has 31±1%. This establishes that by polymerizing the peptide, the peptomer achieves a conformation that is not favored for the free peptide monomer.
Using circular dichroism spectroscopy as described in Example 5, above, the degree of α-helicity of the peptide (419-436) with and without detergent was determined.

[2] = test system: antisera from HIV infected individuals; test: ELISA of serum samples on plates coated with peptide or peptomer; type: binding; settings: for ELISA Titer of serum sample: 1 μg/well coated
Procedure: Standard ELISA methods were used in these experiments. Briefly, 96-well polystyrene plates were coated with 1 μg/well of peptide or peptomer. The peptide found 9/27 (33%); the peptomer found 26/27 (96%); 1/10 (10%) false positive with the peptomer.

gp120 binding to CD4 = target: T1, gp120 binding to CD4 (Homo sapiens, UniProt P01730); test: ELISA: inhibition of gp120 binding to CD4 by peptomer; design: species or system HIV-1; settings: 500 ng/well recombinant soluble gp120 coated, biotinylated CD4, peptomer prepared without lyophilization
T1 construct: recombinant soluble CD4 (Genentech); purchased Genentech
Procedure: C. Inhibition of gp120 binding to CD4 by peptomer(419-436). The ELISA procedure was the same as above except that 500 ng/well of recombinant soluble gp120 was used to coat each well instead of peptomer. Poly-scrambled peptomer is a peptomer that contains all the amino acids as in peptomer(419-436) in a scrambled order.

Rhesus monkeys = test: Immune response of Rhesus monkeys: ELISA titer against the peptomer; type: in vivo; settings: for ELISA titer 0 weeks: before peptomer immunization
Procedure: (§1) This experiment was done with Rhesus monkeys that had been primed with various attenuated poxvirus recombinant carrying HIV-1MN genes and boosted with envelope and gag proteins formulated in alum. Six monkeys were used for the studies. Two of the monkeys were immunized with peptomer(419-436) suspended in phosphate-buffered saline (PBS at pH 7.4 without adjuvant) and four were immunized with peptomer(419-436) in alum. Each animal was injected with a single 1 ml bolus containing 1 mg peptomer(419-436) in a subscapular location in order that the immunogen be administered in a lymph node-rich locus. Three weeks after the initial injection, the monkeys were injected again and the final evaluation was performed after an additional three weeks (a total of six weeks from the initial injection).
Three weeks following the initial administration of the peptomer(419-436) an ELISA titer against the peptomer of 1:3,200 was detected for the monkeys immunized with peptomer in alum.

[3] = target: recombinant soluble gp120 (Human immunodeficiency virus type 1 group M subtype B, UniProt P05877); settings: rabbit antibodies, dot blot assay
Procedure: The dot blot assays were carried as follows. Peptomers in H2 O were spotted onto nitrocellulose paper. The nitrocellulose was then blocked with 3% bovine serum albumin in tris-buffered saline (TBS) pH 7.4 for 1 hour, then treated with 1 μg/ml biotinylated rsCD4 (Genentech, South San Francisco, Calif.) for 3 hours in a buffer containing TBS and 0.1% Tween 20. The nitrocellulose was then treated with a 1:750 dilution of streptavidin-horseradish peroxidase conjugate and developed.

HIV-1 (MN) = HIV-1 (MN) in vitro neutralization by sera of immunized Rhesus monkeys; type: cell-based; settings: 1 mg in PBS at 0 and 3 weeks, reciprocal serum dilution giving 40% neutralization
Procedure: as §1
The neutralization titers are given as the reciprocal of the dilution of
serum that gives a 40% neutralization of HIV1 (MN) infection in vitro. A
negative value means neutralization was not observed at the lowest serum
dilution tested (1:25). The MN isolate was used because this was the
strain used to design the peptomer.

[4] = Solubility of the peptomer; type: physicochemical
Procedure: b) Polymerization of the peptide monomers to form peptomer (419-436) The peptide polymers were prepared by dissolving 5 mg of the N-bromoacetyl cysteine-containing peptides in 1.0 ml of deoxygenated 0.5M NaHCO3 or 0.1M NaHPO4, pH 7.0-7.5 buffer and stirring these solutions under N2 for 5-12 hours at 25° C. […] They are soluble in 10% acetic acid at less than about 1mg/ml.
The peptomer used in the experiments described in this Example was prepared without a lyophilization step.

MN isolate of HIV1 = test: In vitro neutralization assay with rabbit antisera; type: cell-based; settings: rabbit antibodies, Freund's adjuvant, HIV-1 MN in vitro
Procedure: HIV-1 MN isolate was neutralized at a dilution of 1:70. Neutralization assays were carried as described in Robert-Guroff, et al. in Techniques in HIV Research Aldovini and Walker eds. pp. 179-185 (Aldrich 1990).
gp120 Reactivity was in the dot blot assay. Neutralization was with an in
vitro neutralization assay using the MN isolate of HIV1.

[5] = test system: binding of biotinylated CD4 to peptomer(419-436); settings: 10 μg/200 μl peptomer coated; 1 μg/well biotinylated CD4
[6] = diagnosis Hodgkins / lymphoma (control)
[7] = diagnosis Kidney Graft (control)

## KIKQIINMWQEVGKAMYA [Peptide 419-436]
CD4
  ability of the peptide monomer to bind CD4: enhanced ability
[1]; PBS with 0.03% Brij 35, shoulder at 220 λ
  α-helix by circular dichroism: presence of an α-helix
[1]
  helix content: 8±7%
[2]; [6]
  ELISA Titer of serum sample: 0
[2]; [7]
  ELISA Titer of serum sample: 0
[2]; diagnosis NORMAL (control)
  ELISA Titer of serum sample: 0
[2]; diagnosis uveitis (control)
  ELISA Titer of serum sample: 0
[2]; of 27 HIV+/AIDS sera
  HIV-1(+) serum samples found: 33%
[2]; positive of 27 HIV+/AIDS sera
  HIV-1(+) serum samples found: 9/27

## Peptomer (419-436): polymer of N-bromoacetyl cysteine-containing peptide monomers KIKQIINMWQEVGKAMYA, residues 419 to 436 of HIV-1 gp120 (also: polymerized via N-bromoacetyl cysteine, site not given here)
gp120 binding to CD4; listed as peptomer
  inhibition of gp120 binding to CD4: enhanced ability to block binding
gp120 binding to CD4; listed as peptomer(419-436)
  inhibition of gp120 binding to CD4: inhibition
Rhesus monkeys; Rhesus monkeys, PBS without adjuvant
  ELISA titer 0 weeks: 0
Rhesus monkeys; Rhesus monkeys, alum group
  ELISA titer 0 weeks: 0
Rhesus monkeys; Rhesus monkeys, peptomer in PBS
  ELISA titer against the peptomer, three weeks after initial administration: No titer was detected
Rhesus monkeys; monkeys previously immunized with various HIV-related immunogens including gp160/120
  Immunogenicity in Rhesus monkeys: immunogenic
[3]; Freund's adjuvant
  gp120 Reactivity: 0
[3]; Freund's adjuvant, listed as peptomer (419-436)
  gp120 Reactivity: not able to recognize gp120
[3]; Ribi's adjuvant
  gp120 Reactivity: reacted well
[1]
  helix content: 31±1%
HIV-1 (MN)
  HIV-1 (MN) NEUTRALIZATION 6 weeks: 40 and 50
[4]; 10% acetic acid
  solubility in 10% acetic acid: less than 1 mg/ml
[4]; buffered saline solutions
  solubility in buffered saline solutions: not soluble
[4]; peptomer prepared without a lyophilization step
  solubility in aqueous solutions: increased solubility
[4]; water
  solubility in water: only partially soluble
MN isolate of HIV1
  Neutralization: None
MN isolate of HIV1; listed as peptomer (419-436)
  Neutralization: not able to recognize gp120 or to neutralize HIV-1 infection in vitro
[2]; [6]
  ELISA Titer of serum sample: 0
[2]; [7]
  ELISA Titer of serum sample: 0
[2]; diagnosis NORMAL (control)
  ELISA Titer of serum sample: 0
[2]; of 10 non-HIV sera
  false positive: 10%
[2]; of 27 HIV+/AIDS sera
  HIV-1(+) serum samples found: 96%
[2]; positive of 10 non-HIV sera
  false positive: 1/10
[2]; positive of 27 HIV+/AIDS sera
  HIV-1(+) serum samples found: 26/27

## recombinant soluble gp120: recombinant soluble HIV-1 envelope glycoprotein gp120
[5]
  inhibition of biotinylated CD4 binding to peptomer(419-436): inhibition
